Here are results for four molecules from publication PMC5823858, “Endogenous insensitivity to the Orco agonist VUAA1 reveals novel olfactory receptor complex properties in the specialist fly Mayetiola destructor” (Scientific Reports, 2018).

Common to all, as to experiment: Fluo-4AM calcium fluorescence, plate reader
Assay [1] deals with T1, DmelOR56a + DmelOrco (Drosophila melanogaster, UniProt Q9V8Y7).
T1 construct: gene Or56a; stoichiometry unknown; with Odorant receptor coreceptor
T1 sequence (Q9V8Y7 1-419): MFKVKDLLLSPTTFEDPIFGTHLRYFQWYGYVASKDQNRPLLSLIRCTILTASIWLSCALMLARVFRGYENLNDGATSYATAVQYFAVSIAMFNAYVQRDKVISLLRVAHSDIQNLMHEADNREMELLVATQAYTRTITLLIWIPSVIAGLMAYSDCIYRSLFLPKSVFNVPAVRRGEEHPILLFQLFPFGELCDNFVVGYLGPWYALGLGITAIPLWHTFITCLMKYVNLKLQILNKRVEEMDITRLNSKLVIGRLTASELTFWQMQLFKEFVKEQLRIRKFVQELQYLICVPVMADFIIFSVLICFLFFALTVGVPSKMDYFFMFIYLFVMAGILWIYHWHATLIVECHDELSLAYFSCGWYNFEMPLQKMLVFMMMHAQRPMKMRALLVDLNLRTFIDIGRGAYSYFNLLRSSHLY
T1 sequence (Q9VNB5 1-486 partner): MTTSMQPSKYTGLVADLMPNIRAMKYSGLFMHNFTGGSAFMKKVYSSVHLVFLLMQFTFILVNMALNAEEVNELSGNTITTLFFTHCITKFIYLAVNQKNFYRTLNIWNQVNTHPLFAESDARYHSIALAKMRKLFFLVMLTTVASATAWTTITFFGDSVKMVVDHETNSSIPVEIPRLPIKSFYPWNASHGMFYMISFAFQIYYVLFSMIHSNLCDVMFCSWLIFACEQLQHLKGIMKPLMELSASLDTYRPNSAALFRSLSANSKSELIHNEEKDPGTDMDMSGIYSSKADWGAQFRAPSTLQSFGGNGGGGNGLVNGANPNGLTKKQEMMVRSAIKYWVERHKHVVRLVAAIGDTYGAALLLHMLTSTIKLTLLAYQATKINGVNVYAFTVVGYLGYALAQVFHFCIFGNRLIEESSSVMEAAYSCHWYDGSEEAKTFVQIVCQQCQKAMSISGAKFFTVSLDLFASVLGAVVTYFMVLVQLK
The assay is classed as cell-based. The note with it: agonist of OR; OR and Orco co-expressed. The source says:
Fluo-4AM calcium fluorescence, plate reader on DmelOR56a + DmelOrco | when DmelOR56a was co-expressed with WT DmelOrco the cells responded dose-dependently to geosmin

In assay [2] the target is T2, DmelOR56a + MdesOrco (Drosophila melanogaster, UniProt Q9V8Y7).
T2 construct: gene Or56a; heterospecific complex: D. melanogaster OR56a (V5 tag) with Mayetiola destructor Orco (c-myc tag), TREx/HEK293; with Odorant receptor coreceptor (Mayetiola destructor)
T2 sequence (Q9V8Y7 1-419): T1 sequence (Q9V8Y7 1-419)
T2 sequence (A0A1D8GZG0 1-466 partner): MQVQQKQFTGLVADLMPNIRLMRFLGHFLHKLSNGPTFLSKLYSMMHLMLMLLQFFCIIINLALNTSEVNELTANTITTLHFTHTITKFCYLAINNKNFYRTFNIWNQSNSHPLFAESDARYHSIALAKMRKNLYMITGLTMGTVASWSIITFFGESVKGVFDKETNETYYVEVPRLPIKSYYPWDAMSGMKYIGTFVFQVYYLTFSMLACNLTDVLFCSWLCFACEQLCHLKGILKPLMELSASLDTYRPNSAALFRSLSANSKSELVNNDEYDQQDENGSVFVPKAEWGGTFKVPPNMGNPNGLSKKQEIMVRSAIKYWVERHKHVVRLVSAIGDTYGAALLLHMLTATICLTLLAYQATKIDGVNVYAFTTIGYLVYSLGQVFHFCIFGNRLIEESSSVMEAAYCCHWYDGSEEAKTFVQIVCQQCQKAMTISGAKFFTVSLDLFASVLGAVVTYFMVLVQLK
The format is cell-based. The conditions noted are these: agonist of OR; heterospecific Orco co-expressed.

The target in assay [3] is T3, DmelOR56a + AsegOrco (Drosophila melanogaster, UniProt Q9V8Y7).
T3 construct: gene Or56a; heterospecific complex: D. melanogaster OR56a (V5 tag) with Agrotis segetum Orco (c-myc tag), TREx/HEK293; with Odorant receptor coreceptor (Agrotis segetum)
T3 sequence (Q9V8Y7 1-419): T1 sequence (Q9V8Y7 1-419)
T3 sequence (U5KJY5 2-473 partner limits assumed): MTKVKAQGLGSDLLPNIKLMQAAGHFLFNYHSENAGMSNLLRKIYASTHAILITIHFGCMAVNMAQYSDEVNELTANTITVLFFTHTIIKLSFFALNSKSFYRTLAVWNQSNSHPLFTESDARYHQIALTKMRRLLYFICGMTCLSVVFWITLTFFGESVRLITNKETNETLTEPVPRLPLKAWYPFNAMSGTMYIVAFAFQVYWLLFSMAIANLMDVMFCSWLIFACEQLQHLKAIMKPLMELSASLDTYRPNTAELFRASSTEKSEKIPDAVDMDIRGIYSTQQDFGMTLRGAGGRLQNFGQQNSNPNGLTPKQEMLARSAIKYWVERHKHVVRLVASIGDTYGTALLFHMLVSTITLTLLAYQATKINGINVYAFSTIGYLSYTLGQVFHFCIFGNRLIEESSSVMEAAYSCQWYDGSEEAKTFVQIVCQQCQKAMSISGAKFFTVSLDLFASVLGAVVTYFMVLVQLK
The assay is classed as cell-based. The note with it: agonist of OR; heterospecific Orco co-expressed. From the text: Fluo-4AM calcium fluorescence, plate reader on DmelOR56a + AsegOrco | they responded well to their respective OR-specific ligand

The subject of assay [4] is T4, AsegOR7 + AsegOrco.
T4 construct: gene OR7; stoichiometry unknown; with Odorant receptor coreceptor
The format is cell-based, Agrotis segetum. The conditions noted are these: agonist of OR; OR and mutant Orco co-expressed.

Assay [5] has as its system T5, AsegOR7 + DmelOrco.
T5 construct: gene OR7; heterospecific complex: A. segetum OR7 (V5 tag) with Drosophila melanogaster Orco (c-myc tag), TREx/HEK293; with Odorant receptor coreceptor (Drosophila melanogaster)
The format is cell-based, Agrotis segetum. The conditions noted are these: agonist of OR; heterospecific Orco co-expressed. The source says: Fluo-4AM calcium fluorescence, plate reader on AsegOR7 + DmelOrco | they responded well to their respective OR-specific ligand

For assay [6], the system named is T6, AsegOR7 + MdesOrco.
T6 construct: gene OR7; heterospecific complex: A. segetum OR7 (V5 tag) with Mayetiola destructor Orco (c-myc tag), TREx/HEK293; with Odorant receptor coreceptor (Mayetiola destructor)
The assay is classed as cell-based, Agrotis segetum. The conditions noted are these: agonist of OR; heterospecific Orco co-expressed.

The test system of assay [7] is T6, AsegOR7 + MdesOrco. The assay is classed as cell-based, Agrotis segetum. The note with it: agonist of OR; heterospecific mutant Orco co-expressed. From the text: Fluo-4AM calcium fluorescence, plate reader on AsegOR7 + MdesOrco | when co-expressed with either version of MdesOrco
Assay [8] concerns T4, AsegOR7 + AsegOrco. The assay is classed as cell-based, Agrotis segetum. The conditions noted are these: agonist of OR; OR and Orco co-expressed. From the text:
Fluo-4AM calcium fluorescence, plate reader on AsegOR7 + AsegOrco | when AsegOR7 was co-expressed with WT AsegOrco the cells responded dose dependently

For assay [9], the system named is T7, MdesOR115 + MdesOrco.
T7 construct: gene OR115; stoichiometry unknown; with Odorant receptor coreceptor
The assay is classed as cell-based, Mayetiola destructor. The conditions noted are these: agonist of OR; OR and Orco co-expressed.

Assay [10] relates to T8, MdesOR115 + AsegOrco.
T8 construct: gene OR115; heterospecific complex: M. destructor OR115 (V5 tag) with Agrotis segetum Orco (c-myc tag), TREx/HEK293; with Odorant receptor coreceptor (Agrotis segetum)
The assay is classed as cell-based, Mayetiola destructor. The note with it: agonist of OR; heterospecific Orco co-expressed.

The subject of assay [11] is T9, MdesOR115 + DmelOrco.
T9 construct: gene OR115; heterospecific complex: M. destructor OR115 (V5 tag) with Drosophila melanogaster Orco (c-myc tag), TREx/HEK293; with Odorant receptor coreceptor (Drosophila melanogaster)
The assay is classed as cell-based, Mayetiola destructor. The conditions noted are these: agonist of OR; heterospecific Orco co-expressed.

Assay [12] has as its system T7, MdesOR115 + MdesOrco. The assay is classed as cell-based, Mayetiola destructor. The note with it: agonist of OR; OR and mutant Orco co-expressed. From the text: Fluo-4AM calcium fluorescence, plate reader on MdesOR115 + MdesOrco | when co-expressed with either WT MdesOrco or MdesOrco^(H81F, N133L, A350S)
Assay [13] concerns the target T10, MdesOrco (Mayetiola destructor, UniProt A0A1D8GZG0, A350S/H81F/N133L).
T10 construct: homomeric channel
T10 sequence (A0A1D8GZG0 1-466 H81F/N133L/A350S): T2 sequence (A0A1D8GZG0 1-466 partner)
The assay is classed as cell-based. The source says:
Fluo-4AM calcium fluorescence, plate reader on MdesOrco | MdesOrco^(H81F, N133L, A350S) responded similarly to VUAA1 in HEK293 cells

Assay [14] concerns the target T11, DmelOrco (Drosophila melanogaster, UniProt Q9VNB5).
T11 construct: gene Orco; homomeric channel
T11 sequence (Q9VNB5 1-486): T1 sequence (Q9VNB5 1-486 partner)
The assay is classed as cell-based. From the text: Fluo-4AM calcium fluorescence, plate reader on DmelOrco | WT AsegOrco and DmelOrco responded dose-dependently to VUAA1

Assay [15] has as its target T12, AsegOrco (Agrotis segetum, UniProt U5KJY5).
T12 construct: homomeric channel
T12 sequence (U5KJY5 2-473 limits assumed): T3 sequence (U5KJY5 2-473 partner limits assumed)
The assay is classed as cell-based. From the text: Fluo-4AM calcium fluorescence, plate reader on AsegOrco | WT AsegOrco and DmelOrco responded dose-dependently to VUAA1

Assay [16] addresses T13, MdesOrco (Mayetiola destructor, UniProt A0A1D8GZG0, A350S/C230Q/C408S/H81F/I150T/N133L/T205L).
T13 construct: homomeric channel
T13 sequence (A0A1D8GZG0 1-466 H81F/N133L/I150T/T205L/C230Q/A350S/C408S): T2 sequence (A0A1D8GZG0 1-466 partner)
The assay is classed as cell-based. From the text:
Fluo-4AM calcium fluorescence, plate reader on MdesOrco | contained the seven point mutations responded well to VUAA1

In the case of `C[C@H]1CCC[C@@]2(C)CCCC[C@]12O` [geosmin], the half-maximal effective concentration (EC50) in assay [1] worked out at 19.1 nM; in assay [2] it was 93.5 nM; in [3] it was 37.2 nM.

Regarding `CCCC/C=C\CCCCOC(C)=O` [(Z)-5-decenyl acetate], the concentration for a half-maximal effect (EC50) in assay [4] came to 2200 nM; in [5] it was 1200 nM; in assay [6], 2500 nM; in assay [7], 2800 nM; in assay [8] it was 2300 nM.

Turning to `CC/C=C/C=C/CCCCC[C@H](C)OC(C)=O` [(2S,8E,10E)-8,10-tridecadien-2-yl acetate], the EC50 amounted to 2600 nM in [9], 3500 nM in assay [10], 6200 nM in assay [11] and 3100 nM in assay [12].

In the case of `CCc1ccc(NC(=O)CSc2nnc(-c3cccnc3)n2CC)cc1` [VUAA1, N-(4-ethylphenyl)-2-((4-ethyl-5-(3-pyridinyl)-4H-1,2,4-triazol-3-yl)thio)acetamide], the concentration for a half-maximal effect (EC50) worked out at 25000 nM in [13], 15300 nM in assay [14], 27300 nM in assay [15] and 26300 nM in [16].

In general, EC50 refers to the midpoint of the concentration-response curve.
